Data as given in ChEMBL document CHEMBL1201862, “PubChem BioAssay data set” (2004).
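Test compounds were applied to cells in 96-well plates for 48 hours at 5 doses. At the GI50, growth is halved.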 Active and inactive are the calls of the source. Rule as the data show it: active = GI50 up to about 1.1 µM and inactive = higher.

What was measured:
Test in all cases: NCI tumour cell line growth inhibition, 48 h
[1] = tested on: IGROV-1
[2] = tested on: UACC-257
[3] = tested on: ACHN
[4] = tested on: HCC 2998
[5] = tested on: OVCAR-4
[6] = tested on: EKVX
[7] = tested on: OVCAR-5
[8] = tested on: TK-10
[9] = tested on: SK-MEL-5
[10] = tested on: HCT-116
[11] = tested on: MDA-MB-231
[12] = tested on: DU-145
[13] = tested on: NCI-H23
[14] = tested on: SK-OV-3
[15] = tested on: HOP-62
[16] = tested on: MDA-N
[17] = tested on: SN12C
[18] = tested on: UO-31
[19] = tested on: NCI-H460
[20] = tested on: SK-MEL-2

SMILES	GI50 [1]	GI50 [2]	GI50 [3]	GI50 [4]	GI50 [5]	GI50 [6]	GI50 [7]	GI50 [8]	GI50 [9]	GI50 [10]	GI50 [11]	GI50 [12]	GI50 [13]	GI50 [14]	GI50 [15]	GI50 [16]	GI50 [17]	GI50 [18]	GI50 [19]	GI50 [20]
OC(Cc1ccc2ccccc2n1)(C(F)(F)F)C(F)(F)F	> 10 µM (inactive)	> 10 µM (inactive)	> 10 µM (inactive)	> 10 µM (inactive)	> 10 µM (inactive)	> 10 µM (inactive)	> 10 µM (inactive)	> 10 µM (inactive)	> 10 µM (inactive)	> 10 µM (inactive)	> 10 µM (inactive)	> 10 µM (inactive)	> 10 µM (inactive)	> 10 µM (inactive)	> 10 µM (inactive)	> 10 µM (inactive)	> 10 µM (inactive)	> 10 µM (inactive)	> 10 µM (inactive)	–
CN(C)CCN(C)P12(Oc3ccccc3O1)Oc1c(Cl)c(Cl)c(Cl)c(Cl)c1O2	45.4 µM (inactive)	29.5 µM (inactive)	39.8 µM (inactive)	> 100 µM (inactive)	33.5 µM (inactive)	99.8 µM (inactive)	46.1 µM (inactive)	> 100 µM (inactive)	58.6 µM (inactive)	33.2 µM (inactive)	69.8 µM (inactive)	85.5 µM (inactive)	35.8 µM (inactive)	> 100 µM (inactive)	45 µM (inactive)	48.4 µM (inactive)	42.6 µM (inactive)	39.1 µM (inactive)	37.2 µM (inactive)	–
Nc1n[n+]([O-])c2ccc(Cl)cc2[n+]1[O-]	11.6 µM (inactive)	17.9 µM (inactive)	24.2 µM (inactive)	16.4 µM (inactive)	–	32.2 µM (inactive)	25.8 µM (inactive)	37.2 µM (inactive)	4.07 µM (inactive)	18.5 µM (inactive)	32 µM (inactive)	46.1 µM (inactive)	20.1 µM (inactive)	16.7 µM (inactive)	11 µM (inactive)	23.7 µM (inactive)	32.1 µM (inactive)	27.6 µM (inactive)	–	31.7 µM (inactive)
COc1ccc(-c2cc(-c3ccc(Nc4ccnc5cc(Cl)ccc45)cc3)nc(N)c2C#N)c2ccccc12	> 100 µM (inactive)	> 100 µM (inactive)	> 100 µM (inactive)	> 100 µM (inactive)	> 100 µM (inactive)	> 100 µM (inactive)	> 100 µM (inactive)	> 100 µM (inactive)	> 100 µM (inactive)	> 100 µM (inactive)	> 100 µM (inactive)	> 100 µM (inactive)	> 100 µM (inactive)	–	> 100 µM (inactive)	> 100 µM (inactive)	> 100 µM (inactive)	> 100 µM (inactive)	> 100 µM (inactive)	> 100 µM (inactive)
CCCCOCCOCCOC1=C(Cl)C(=O)c2c(O)ccc(O)c2C1=O	1.35 µM (inactive)	0.766 µM (active)	1.59 µM (inactive)	2.1 µM (inactive)	0.359 µM (active)	2.57 µM (inactive)	2.52 µM (inactive)	1.32 µM (inactive)	0.565 µM (active)	0.401 µM (active)	0.488 µM (active)	1.77 µM (inactive)	0.984 µM (active)	4.25 µM (inactive)	1.19 µM (inactive)	0.728 µM (active)	1.61 µM (inactive)	1.35 µM (inactive)	1.85 µM (inactive)	–
COC(=O)C1=CO[C@@H](OC2OC(CO)C(O)C(O)C2O)[C@H]2[C@@H](C)[C@@H](O)[C@@H](O)[C@@H]12 (stereo not given in full)	> 100 µM (inactive)	> 100 µM (inactive)	> 100 µM (inactive)	> 100 µM (inactive)	> 100 µM (inactive)	> 100 µM (inactive)	> 100 µM (inactive)	> 100 µM (inactive)	> 100 µM (inactive)	> 100 µM (inactive)	> 100 µM (inactive)	> 100 µM (inactive)	> 100 µM (inactive)	> 100 µM (inactive)	> 100 µM (inactive)	> 100 µM (inactive)	> 100 µM (inactive)	> 100 µM (inactive)	–	> 100 µM (inactive)
C[C@H](NC(=O)CNC(=O)CCCCCC(=O)NCC(=O)N[C@@H](C)C(=O)OCc1ccccc1)C(=O)OCc1ccccc1	> 100 µM (inactive)	> 100 µM (inactive)	> 100 µM (inactive)	> 100 µM (inactive)	> 100 µM (inactive)	> 100 µM (inactive)	> 100 µM (inactive)	> 100 µM (inactive)	–	> 100 µM (inactive)	> 100 µM (inactive)	> 100 µM (inactive)	> 100 µM (inactive)	> 100 µM (inactive)	> 100 µM (inactive)	> 100 µM (inactive)	> 100 µM (inactive)	–	–	> 100 µM (inactive)
O=[N+]([O-])C(C=C(n1nnc2ccccc21)n1nnc2ccccc21)=C(n1nnc2ccccc21)n1nnc2ccccc21	> 100 µM (inactive)	–	> 100 µM (inactive)	> 100 µM (inactive)	–	> 100 µM (inactive)	> 100 µM (inactive)	> 100 µM (inactive)	–	46.2 µM (inactive)	> 100 µM (inactive)	> 100 µM (inactive)	> 100 µM (inactive)	> 100 µM (inactive)	> 100 µM (inactive)	> 100 µM (inactive)	> 100 µM (inactive)	22.1 µM (inactive)	> 100 µM (inactive)	–
COC(=O)C[C@](O)(CCCC(C)(C)O)C(=O)O[C@@H]1C(OC)=C[C@]23CCCN2CCc2cc4c(cc2[C@H]13)OCO4 [OMACETAXINE MEPESUCCINATE]	0.129 µM (active)	–	0.617 µM (active)	0.0583 µM (active)	0.342 µM (active)	0.133 µM (active)	0.494 µM (active)	3.74 µM (inactive)	0.117 µM (active)	–	1.7 µM (inactive)	0.741 µM (active)	0.0528 µM (active)	0.122 µM (active)	0.0597 µM (active)	2.42 µM (inactive)	0.121 µM (active)	0.546 µM (active)	–	0.259 µM (active)
COC1CC(OC2C(C)OC(OC3C(C)OC(OC4C(O)CC(O[C@H]5CC[C@@]6(C)C(=CC[C@]7(O)[C@@H]6C[C@@H](OC(C)=O)[C@@]6(C)[C@]7(O)CC[C@@]6(O)C(C)=O)C5)OC4C)CC3OC)CC2OC)OC(C)C1O (stereo not given in full)	> 12.5 µM (inactive)	> 12.5 µM (inactive)	> 12.5 µM (inactive)	> 12.5 µM (inactive)	> 12.5 µM (inactive)	> 12.5 µM (inactive)	> 12.5 µM (inactive)	> 12.5 µM (inactive)	> 12.5 µM (inactive)	> 12.5 µM (inactive)	> 12.5 µM (inactive)	> 12.5 µM (inactive)	> 12.5 µM (inactive)	> 12.5 µM (inactive)	> 12.5 µM (inactive)	> 12.5 µM (inactive)	> 12.5 µM (inactive)	5.61 µM (inactive)	–	> 12.5 µM (inactive)
NC1CC(=O)c2sc(I)cc21 (stereo not given)	> 100 µM (inactive)	> 100 µM (inactive)	> 100 µM (inactive)	> 100 µM (inactive)	–	> 100 µM (inactive)	> 100 µM (inactive)	> 100 µM (inactive)	> 100 µM (inactive)	78.9 µM (inactive)	> 100 µM (inactive)	> 100 µM (inactive)	–	> 100 µM (inactive)	> 100 µM (inactive)	> 100 µM (inactive)	> 100 µM (inactive)	> 100 µM (inactive)	69.8 µM (inactive)	> 100 µM (inactive)
Cc1ccc(S[C@@](C=O)(NC(=O)OCc2ccccc2)C(F)(F)F)cc1	18.5 µM (inactive)	36.8 µM (inactive)	–	37.8 µM (inactive)	44.9 µM (inactive)	22.3 µM (inactive)	23.2 µM (inactive)	–	23.7 µM (inactive)	16.1 µM (inactive)	19.6 µM (inactive)	21.7 µM (inactive)	19.5 µM (inactive)	45 µM (inactive)	29 µM (inactive)	22.8 µM (inactive)	26.7 µM (inactive)	15.6 µM (inactive)	29.9 µM (inactive)	25.8 µM (inactive)
Cc1ccc(S(=O)(=O)C2=C(C(C)C)N=NC2(C)C)cc1	91.4 µM (inactive)	> 100 µM (inactive)	> 100 µM (inactive)	73.6 µM (inactive)	72.9 µM (inactive)	> 100 µM (inactive)	> 100 µM (inactive)	> 100 µM (inactive)	79.8 µM (inactive)	65.5 µM (inactive)	> 100 µM (inactive)	87.1 µM (inactive)	48.8 µM (inactive)	–	> 100 µM (inactive)	80 µM (inactive)	> 100 µM (inactive)	> 100 µM (inactive)	> 100 µM (inactive)	> 100 µM (inactive)
Clc1cccc(-c2sc(-c3cccs3)cc2Cc2cccs2)c1	> 10 µM (inactive)	> 10 µM (inactive)	> 10 µM (inactive)	> 10 µM (inactive)	> 10 µM (inactive)	> 10 µM (inactive)	–	> 10 µM (inactive)	> 10 µM (inactive)	> 10 µM (inactive)	9.84 µM (inactive)	> 10 µM (inactive)	> 10 µM (inactive)	> 10 µM (inactive)	> 10 µM (inactive)	> 10 µM (inactive)	> 10 µM (inactive)	> 10 µM (inactive)	> 10 µM (inactive)	–
